Patent publication US7338950B2, “Amide compounds as ion channel ligands and uses thereof” (Renovis, Inc., priority 2003, dated 2008)

tested on: VR1 receptor (293 cells expressing capsaicin-insensitive VR1 receptor variants); experiment: High throughput screening of VR1 antagonists using a calcium imaging assay (Fura2, pH 5.1 stimulus); settings: 1 uM compound; inhibition of calcium ion influx;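 note: Fura2 ratiometric fluorescence read every 4 s over 3 min, response taken as peak ratio minus baseline before pre-treatment, compound pre-treatment preceding acid challenge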

Structure (SMILES)	% Inhibition @ 1 uM
O=C(Nc1ccc(F)cc1[N+](=O)[O-])c1ccc(-c2ncccc2Cl)c(F)c1 [Compound 1149]	++++ (compound exhibited 75% or greater inhibition of calcium ion influx induced by capsaicin stimulation)
COc1ccc(NC(=O)c2ccc(-c3ncccc3Cl)c(F)c2)cc1Cl [Compound 1151]	++++ (compound exhibited 75% or greater inhibition of calcium ion influx induced by capsaicin stimulation)
O=C(Nc1ccc(C(F)(F)F)cc1)c1ccc(-c2ncccc2Cl)c(F)c1 [Compound 1152]	++ (compound exhibited 25-50% inhibition of calcium ion influx induced by capsaicin stimulation)
Cc1cc(C)nc(NC(=O)c2ccc(-c3ncccc3Cl)c(F)c2)c1 [Compound 1156]	+ (compound exhibited 0-25% inhibition of calcium ion influx induced by capsaicin stimulation)
O=C(Nc1ccncc1)c1ccc(-c2ncccc2Cl)c(F)c1 [Compound 1157]	++++ (compound exhibited 75% or greater inhibition of calcium ion influx induced by capsaicin stimulation)
Cc1ccnc(NC(=O)c2ccc(-c3ncccc3Cl)c(F)c2)c1 [Compound 1162]	++++ (compound exhibited 75% or greater inhibition of calcium ion influx induced by capsaicin stimulation)
O=C(Nc1ccc(C(F)(F)F)cn1)c1ccc(-c2ncccc2Cl)c(F)c1 [Compound 1166]	++ (compound exhibited 25-50% inhibition of calcium ion influx induced by capsaicin stimulation)
O=C(Nc1ccc(Cl)nc1)c1ccc(-c2ncccc2Cl)c(F)c1 [Compound 1169]	+ (compound exhibited 0-25% inhibition of calcium ion influx induced by capsaicin stimulation)
COc1ccc(NC(=O)c2ccc(-c3ncccc3Cl)c(F)c2)cn1 [Compound 1170]	++ (compound exhibited 25-50% inhibition of calcium ion influx induced by capsaicin stimulation)
O=C(Nc1ccc2ncccc2c1)c1ccc(-c2ncccc2Cl)c(F)c1 [Compound 1173]	++++ (compound exhibited 75% or greater inhibition of calcium ion influx induced by capsaicin stimulation)
O=C(Nc1cc[nH]n1)c1ccc(-c2ncccc2Cl)c(F)c1 [Compound 1175]	+ (compound exhibited 0-25% inhibition of calcium ion influx induced by capsaicin stimulation)
O=C(Nc1ccc2ccccc2c1)c1ccc(-c2ncccc2Cl)c(F)c1 [Compound 1177]	++++ (compound exhibited 75% or greater inhibition of calcium ion influx induced by capsaicin stimulation)
O=C(O)c1cccc(NC(=O)c2ccc(-c3ncccc3Cl)c(F)c2)c1 [Compound 1182]	+ (compound exhibited 0-25% inhibition of calcium ion influx induced by capsaicin stimulation)
O=C(Nc1ccc(Cl)c(C(=O)O)c1)c1ccc(-c2ncccc2Cl)c(F)c1 [Compound 1183]	++++ (compound exhibited 75% or greater inhibition of calcium ion influx induced by capsaicin stimulation)
COc1ccc(NC(=O)c2ccc(-c3ncccc3Cl)c(F)c2)cc1O [Compound 1187]	++ (compound exhibited 25-50% inhibition of calcium ion influx induced by capsaicin stimulation)
O=C(Nc1ccc2cn[nH]c2c1)c1ccc(-c2ncccc2Cl)c(F)c1 [Compound 1189]	+++ (compound exhibited 50-75% inhibition of calcium ion influx induced by capsaicin stimulation)
CCCOc1ccc(NC(=O)c2ccc(-c3ncccc3Cl)c(F)c2)cc1 [Compound 1190]	++ (compound exhibited 25-50% inhibition of calcium ion influx induced by capsaicin stimulation)
O=C(Nc1ccc(OC(F)(F)F)cc1)c1ccc(-c2ncccc2Cl)c(F)c1 [Compound 1192]	++ (compound exhibited 25-50% inhibition of calcium ion influx induced by capsaicin stimulation)
O=C(Nc1cccc(OC(F)(F)F)c1)c1ccc(-c2ncccc2Cl)c(F)c1 [Compound 1193]	+ (compound exhibited 0-25% inhibition of calcium ion influx induced by capsaicin stimulation)
CC(C)Oc1cccc(NC(=O)c2ccc(-c3ncccc3Cl)c(F)c2)c1 [Compound 1194]	+ (compound exhibited 0-25% inhibition of calcium ion influx induced by capsaicin stimulation)
O=C(Nc1ccc(F)c(F)c1)c1ccc(-c2ncccc2Cl)c(F)c1 [Compound 1195]	+++ (compound exhibited 50-75% inhibition of calcium ion influx induced by capsaicin stimulation)
O=C(Nc1ccc(N2CCOCC2)c(Cl)c1)c1ccc(-c2ncccc2Cl)c(F)c1 [Compound 1200]	++++ (compound exhibited 75% or greater inhibition of calcium ion influx induced by capsaicin stimulation)
CN1CCCc2ccc(NC(=O)c3ccc(-c4ncccc4Cl)c(F)c3)cc21 [Compound 1203]	+ (compound exhibited 0-25% inhibition of calcium ion influx induced by capsaicin stimulation)
COc1cc(C(=O)NC(C)(C)C)ccc1-c1ncccc1Cl [Compound 1204]	+ (compound exhibited 0-25% inhibition of calcium ion influx induced by capsaicin stimulation)
COc1cc(C(=O)Nc2ccccc2)ccc1-c1ncccc1Cl [Compound 1206]	+ (compound exhibited 0-25% inhibition of calcium ion influx induced by capsaicin stimulation)

Structure (SMILES)	% Inhibition @ 1 uM
COc1ccc(NC(=O)c2ccc(-c3ncccc3Cl)c(OC)c2)cc1 [Compound 1207]	+ (compound exhibited 0-25% inhibition of calcium ion influx induced by capsaicin stimulation)
COc1cc(C(=O)Nc2ccccc2C#N)ccc1-c1ncccc1Cl [Compound 1209]	+ (compound exhibited 0-25% inhibition of calcium ion influx induced by capsaicin stimulation)
COc1cc(C(=O)Nc2cccc(Cl)c2)ccc1-c1ncccc1Cl [Compound 1210]	+ (compound exhibited 0-25% inhibition of calcium ion influx induced by capsaicin stimulation)
COc1ccccc1NC(=O)c1ccc(-c2ncccc2Cl)c(OC)c1 [Compound 1211]	++ (compound exhibited 25-50% inhibition of calcium ion influx induced by capsaicin stimulation)
CCCc1ccccc1NC(=O)c1ccc(-c2ncccc2Cl)c(OC)c1 [Compound 1212]	++ (compound exhibited 25-50% inhibition of calcium ion influx induced by capsaicin stimulation)
COc1cccc(NC(=O)c2ccc(-c3ncccc3Cl)c(OC)c2)c1 [Compound 1213]	++ (compound exhibited 25-50% inhibition of calcium ion influx induced by capsaicin stimulation)
COc1cc(C(=O)Nc2cccc(Cl)c2Cl)ccc1-c1ncccc1Cl [Compound 1216]	++++ (compound exhibited 75% or greater inhibition of calcium ion influx induced by capsaicin stimulation)
COc1cc(C(=O)Nc2cccc(C#N)c2)ccc1-c1ncccc1Cl [Compound 1218]	++++ (compound exhibited 75% or greater inhibition of calcium ion influx induced by capsaicin stimulation)
CCCCc1ccc(NC(=O)c2ccc(-c3ncccc3Cl)c(OC)c2)cc1 [Compound 1221]	++ (compound exhibited 25-50% inhibition of calcium ion influx induced by capsaicin stimulation)
COc1cc(C(=O)Nc2ccc(C)cc2C)ccc1-c1ncccc1Cl [Compound 1223]	++++ (compound exhibited 75% or greater inhibition of calcium ion influx induced by capsaicin stimulation)
COc1cc(C(=O)Nc2ccc(F)cc2[N+](=O)[O-])ccc1-c1ncccc1Cl [Compound 1227]	++++ (compound exhibited 75% or greater inhibition of calcium ion influx induced by capsaicin stimulation)
COc1ccc(NC(=O)c2ccc(-c3ncccc3Cl)c(OC)c2)cc1Cl [Compound 1229]	+++ (compound exhibited 50-75% inhibition of calcium ion influx induced by capsaicin stimulation)
COc1cc(C(=O)Nc2ccc(C(F)(F)F)cc2)ccc1-c1ncccc1Cl [Compound 1230]	++ (compound exhibited 25-50% inhibition of calcium ion influx induced by capsaicin stimulation)
COc1cc(C(=O)Nc2ccc(Cl)c(C(F)(F)F)c2)ccc1-c1ncccc1Cl [Compound 1231]	+ (compound exhibited 0-25% inhibition of calcium ion influx induced by capsaicin stimulation)
COc1cc(C(=O)Nc2cc(C)cc(C)n2)ccc1-c1ncccc1Cl [Compound 1234]	+ (compound exhibited 0-25% inhibition of calcium ion influx induced by capsaicin stimulation)
COc1cc(C(=O)Nc2ccncc2)ccc1-c1ncccc1Cl [Compound 1235]	++++ (compound exhibited 75% or greater inhibition of calcium ion influx induced by capsaicin stimulation)
COc1cc(C(=O)Nc2cccnc2)ccc1-c1ncccc1Cl [Compound 1236]	+ (compound exhibited 0-25% inhibition of calcium ion influx induced by capsaicin stimulation)
COc1cc(C(=O)Nc2cc(C)ccn2)ccc1-c1ncccc1Cl [Compound 1240]	++++ (compound exhibited 75% or greater inhibition of calcium ion influx induced by capsaicin stimulation)
COc1cc(C(=O)Nc2ccncn2)ccc1-c1ncccc1Cl [Compound 1242]	++ (compound exhibited 25-50% inhibition of calcium ion influx induced by capsaicin stimulation)
COc1cc(C(=O)Nc2ccc(Br)cn2)ccc1-c1ncccc1Cl [Compound 1243]	+ (compound exhibited 0-25% inhibition of calcium ion influx induced by capsaicin stimulation)
COc1ccc(NC(=O)c2ccc(-c3ncccc3Cl)c(OC)c2)cn1 [Compound 1247]	++ (compound exhibited 25-50% inhibition of calcium ion influx induced by capsaicin stimulation)
COc1cc(C(=O)Nc2ccnc(Cl)c2)ccc1-c1ncccc1Cl [Compound 1248]	+ (compound exhibited 0-25% inhibition of calcium ion influx induced by capsaicin stimulation)
COc1cc(C(=O)Nc2cc(C)nc(C)n2)ccc1-c1ncccc1Cl [Compound 1249]	+ (compound exhibited 0-25% inhibition of calcium ion influx induced by capsaicin stimulation)
COc1cc(C(=O)Nc2ccc3ncccc3c2)ccc1-c1ncccc1Cl [Compound 1250]	++++ (compound exhibited 75% or greater inhibition of calcium ion influx induced by capsaicin stimulation)
CCn1c2ccccc2c2cc(NC(=O)c3ccc(-c4ccccc4Cl)c(OC)c3)ccc21 [Compound 1251]	+ (compound exhibited 0-25% inhibition of calcium ion influx induced by capsaicin stimulation)
